# Patent publication US20110245242A1, “Heterocyclically Substituted Anilinopyrimides” (Bayer CropScience AG, priority 2008, published 2011)
# Like-named read-outs stand apart in the source and are kept apart here. Marks after values point to notes of the source that are not given here.
# Assays:
# Fusarium proliferatum = test: Production of Fumonisin FB1 by Fusarium proliferatum (microtitre plates; FB1 by HPLC-MS/MS, growth by OD620); format: cell-based; conditions: for IC50: Fusarium proliferatum, 144 h
# physchem [1] = format: physicochemical; conditions: pH 7.8
# Protocol: The log P values were measured in accordance with EEC Directive 79/831 Annex V.A8 by HPLC (High Performance Liquid Chromatography) on reversed-phase columns (C 18) using the methods below: [c] The LC-MS determination in the neutral range was carried out at pH 7.8 using the mobile phases 0.001 molar aqueous ammonium bicarbonate solution and acetonitrile linear gradient from 10% acetonitrile to 95% acetonitrile.
# [2] = log P by LC-MS, method [b], acid range pH 2.7; format: physicochemical; conditions: pH 2.7
# Protocol: The log P values were measured in accordance with EEC Directive 79/831 Annex V.A8 by HPLC (High Performance Liquid Chromatography) on reversed-phase columns (C 18) using the methods below:
# [b] The LC-MS determination in the acid range was carried out at pH 2.7 using the mobile phases 0.1% aqueous formic acid and acetonitrile (contains 0.1% formic acid)
# linear gradient from 10% acetonitrile to 95% acetonitrile.
# Phakopsora pachyrhizi = test: Phakopsora test (soya beans)/protective; format: in vivo; conditions: active compound concentration of 250 ppm, protective, evaluation 1 day after the inoculation
# [3] = log P by HPLC on reversed-phase columns (C 18), method [a], acidic range pH 2.3; format: physicochemical
# Protocol: The log P values were measured in accordance with EEC Directive 79/831 Annex V.A8 by HPLC (High Performance Liquid Chromatography) on reversed-phase columns (C 18) using the methods below: [a] The determination was carried out in the acidic range at pH 2.3 using the mobile phases 0.1% aqueous phosphoric acid and acetronitrile linear gradient from 10% acetonitrile to 95% acetronitrile.
# Sphaerotheca fuliginea = test: Sphaerotheca test (cucumber)/protective; format: in vivo; conditions: Podosphaera fuliginea, 168 h, active compound concentration of 500 ppm, protective, evaluation 7 days after the inoculation, read-out: efficacy
# physchem [4] = format: physicochemical; conditions: pH 7
# [5] = format: physicochemical
# Protocol: The log P values were measured in accordance with EEC Directive 79/831 Annex V.A8 by HPLC (High Performance Liquid Chromatography) on reversed-phase columns (C 18) using the methods below: […]
# Fusarium graminearum = test: microbe, parasite or virus in culture; format: cell-based; conditions: 168 h, read-out: activity in the inhibition of DON/AcDON
# [6] = FB1 concentration in liquid medium after 6 days at 20° C., HPLC-MS/MS
smiles,measurement,setting,value
FC(F)(F)c1cnc(Nc2cccc(N3CCCC3=S)c2)nc1NC1CC1 [Example 214],pI50 Fum,Fusarium proliferatum; [6],5.1
same,pI50 growth,Fusarium proliferatum; OD620 at the beginning and after 6 days,5
same,log p,physchem [1],2.86[c];
same,log p,[2],2.59[b]
same,efficacy,Phakopsora pachyrhizi,≥ 80%
"S=C1CCCN1c1cccc(Nc2ncc(Cl)c(NC3CC3)n2)c1 [Example 33, 1-(3-{[5-Chloro-4-(cyclopropylamino)pyrimidin-2-yl]amino}phenyl)pyrrolidine-2-thione]",chromatographic logP,"[3]; pH 2.3, log p",1.69
same,pest or weed control at 500 ppm,Sphaerotheca fuliginea,≥ 70%
same,chromatographic logP,physchem [1],2.54
same,chromatographic logP,physchem [4],2.54
O=C1CCC(=O)N1c1cccc(Nc2ncc(Cl)c(NC3CC3)n2)c1 [Example 195],log p,[5],0.99[d]
same,pI50 Fum,Fusarium proliferatum; [6],6.2
same,log p,physchem [1],1.98[c];
"O=C1OCCN1c1cccc(Nc2ncc(Cl)c(NC3CCC3)n2)c1 [Example 59, 3-(3-{[5-Chloro-4-(cyclobutylamino)pyrimidin-2-yl]amino}phenyl)-1,3-oxazolidin-2-one]",chromatographic logP,"[3]; pH 2.3, log P (pH 2.3)",1.64
same,chromatographic logP,"[3]; pH 2.3, log p",1.64
same,IC50,"Fusarium proliferatum; FB1 concentration in liquid medium after 6 days at 20° C., HPLC-MS/MS, read-out: pI50 Fum (converted)",0.631 µM
same,IC50,"Fusarium proliferatum; OD620 at the beginning and after 6 days, read-out: pI50 growth (converted)",2.51 µM
same,pest or weed control at 500 ppm,Sphaerotheca fuliginea,≥ 70%
same,chromatographic logP,[2],1.64
same,inhibition at 50 µM,Fusarium graminearum,> 80%
